Experimental data reported in ChEMBL document CHEMBL5543128, “Recent Discovery and Development of Inhibitors that Target CDK9 and Their Therapeutic Indications” (J Med Chem, 2024).
Each block holds one compound with its values, some of them ahead of it.

Experiments:
Histone deacetylase 1 = Histone deacetylase 1 (Homo sapiens, UniProt Q13547); test: Inhibition of HDAC1 (unknown origin) by fluorescence based assay
[1] = molecular target: T1, Cyclin-dependent kinase 9 (Homo sapiens, UniProt P50750); test: Inhibition of CDK9 (unknown origin) at 100 nM relative to control
T1 sequence (P50750 whole entry): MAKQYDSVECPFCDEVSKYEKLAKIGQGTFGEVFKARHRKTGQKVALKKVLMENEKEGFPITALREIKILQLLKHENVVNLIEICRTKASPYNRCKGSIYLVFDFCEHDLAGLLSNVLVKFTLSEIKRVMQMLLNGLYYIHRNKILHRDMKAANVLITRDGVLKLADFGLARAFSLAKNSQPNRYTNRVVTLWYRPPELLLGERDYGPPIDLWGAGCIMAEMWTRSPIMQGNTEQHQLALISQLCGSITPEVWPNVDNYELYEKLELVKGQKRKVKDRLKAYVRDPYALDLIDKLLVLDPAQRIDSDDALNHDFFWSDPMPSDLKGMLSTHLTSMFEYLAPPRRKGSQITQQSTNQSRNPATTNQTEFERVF

[2] = molecular target: T2, Protein cereblon/Cyclin-dependent kinase 9 (Homo sapiens) (UniProt P50750+Q96SW2); test: PROTAC activity at CRBN/CDK9 in human MV4-11 cells assessed as maximal degradation of CDK9 at 10 uM measured for 6 hrs by Western blot analysis; type: cell-based
T2 sequence (P50750 whole entry, looked up): as the sequence (P50750 whole entry) above
T2 sequence (Q96SW2 whole entry, looked up): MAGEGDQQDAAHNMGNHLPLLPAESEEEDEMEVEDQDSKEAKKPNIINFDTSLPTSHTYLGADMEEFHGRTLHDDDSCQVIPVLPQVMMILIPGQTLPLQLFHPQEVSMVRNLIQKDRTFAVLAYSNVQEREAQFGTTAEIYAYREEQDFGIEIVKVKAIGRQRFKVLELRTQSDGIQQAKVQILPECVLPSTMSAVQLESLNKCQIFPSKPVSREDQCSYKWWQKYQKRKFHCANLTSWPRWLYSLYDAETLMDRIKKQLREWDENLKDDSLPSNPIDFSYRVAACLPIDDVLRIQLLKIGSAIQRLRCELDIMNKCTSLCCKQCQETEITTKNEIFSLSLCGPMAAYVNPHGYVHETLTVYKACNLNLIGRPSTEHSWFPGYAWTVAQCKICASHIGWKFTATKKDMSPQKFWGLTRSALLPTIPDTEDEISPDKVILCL

[3] = molecular target: T2, Protein cereblon/Cyclin-dependent kinase 9 (Homo sapiens); test: PROTAC activity at CRBN/CDK9 in human MV4-11 cells assessed as maximal degradation of CDK9 at 20 uM measured for 6 hrs by Western blot analysis; type: cell-based
[4] = molecular target: Casein kinase I isoform alpha (Homo sapiens, UniProt P48729); test: Binding affinity to CK1alpha (unknown origin) assessed as dissociation constant
Casein kinase I isoform alpha, sequence (P48729 whole entry, canonical isoform): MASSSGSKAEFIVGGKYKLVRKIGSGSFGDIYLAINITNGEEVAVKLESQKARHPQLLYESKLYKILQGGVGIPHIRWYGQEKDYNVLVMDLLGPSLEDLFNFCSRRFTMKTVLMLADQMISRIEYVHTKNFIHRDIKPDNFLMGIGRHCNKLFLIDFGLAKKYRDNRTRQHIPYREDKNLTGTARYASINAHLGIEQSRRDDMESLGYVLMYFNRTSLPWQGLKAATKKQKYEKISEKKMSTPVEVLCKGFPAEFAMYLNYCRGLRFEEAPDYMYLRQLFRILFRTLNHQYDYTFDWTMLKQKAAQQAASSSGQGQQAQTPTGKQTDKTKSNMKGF

[5] = molecular target: T1, Cyclin-dependent kinase 9; test: Binding affinity to CDK9 (unknown origin) assessed as dissociation constant
[6] = molecular target: T1, Cyclin-dependent kinase 9; test: Inhibition of CDK9 (unknown origin)
[7] = molecular target: Cyclin-dependent kinase 4 (Homo sapiens, UniProt P11802); test: Inhibition of CDK4 (unknown origin)
Cyclin-dependent kinase 4, sequence (P11802 whole entry): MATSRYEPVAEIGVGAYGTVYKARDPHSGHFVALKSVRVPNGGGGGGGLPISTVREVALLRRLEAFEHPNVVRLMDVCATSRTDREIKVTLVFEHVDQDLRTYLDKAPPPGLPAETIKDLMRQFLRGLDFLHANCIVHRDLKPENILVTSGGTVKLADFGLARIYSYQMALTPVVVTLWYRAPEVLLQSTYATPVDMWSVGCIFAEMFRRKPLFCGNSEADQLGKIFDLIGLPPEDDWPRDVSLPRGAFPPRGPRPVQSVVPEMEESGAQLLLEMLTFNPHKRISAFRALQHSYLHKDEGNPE

[8] = Inhibition of CDK2/CYCA (unknown origin); parameters: species or system Homo sapiens
MV4-11 [9] = test: Cytotoxicity against human MV4-11 cells assessed as cell growth reduction measured for 48 hrs by MTT assay; type: functional
A498 = test: Antiproliferative activity against human A498 cells assessed as reduction in cell viability incubated for 72 hrs by MTT assay; type: functional, cell-based; conditions: A498, 72 h
[10] = Antiproliferative activity against human A-293 cells assessed as reduction in cell viability measured for 48 hrs by MTT assay; type: toxicity, cell-based; conditions: A-293 (AD293) cells
[11] = molecular target: T1, Cyclin-dependent kinase 9
[12] = molecular target: Cyclin-dependent kinase 5 (Homo sapiens, UniProt Q00535)
Cyclin-dependent kinase 5, sequence (Q00535 whole entry): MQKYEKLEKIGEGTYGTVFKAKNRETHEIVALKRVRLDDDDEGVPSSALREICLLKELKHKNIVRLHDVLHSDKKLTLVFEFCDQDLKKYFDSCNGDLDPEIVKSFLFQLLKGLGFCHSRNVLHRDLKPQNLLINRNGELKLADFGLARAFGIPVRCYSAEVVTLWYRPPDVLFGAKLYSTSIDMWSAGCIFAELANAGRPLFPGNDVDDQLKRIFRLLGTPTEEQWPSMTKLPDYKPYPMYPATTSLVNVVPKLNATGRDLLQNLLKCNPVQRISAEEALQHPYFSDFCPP

OCI-AML-3 = test: Antiproliferative activity against human OCI-AML-3 assessed as reduction in cell viability incubated for 48 hrs by CellTiter-Glo cell vaibility assay; type: functional, cell-based; conditions: OCI-AML-3, 48 h
MOLM-13 [13] = test: Antiproliferative activity against human MOLM-13 cells assessed as reduction in cell viability incubated for 72 hrs by MTT assay; type: functional, cell-based; conditions: MOLM-13, 72 h
HCT-116 = test: Antiproliferative activity against human HCT-116 cells assessed as reduction in cell viability incubated for 72 hrs by CCK-8 assay; type: functional, cell-based; conditions: HCT-116, 72 h
K562 = test: Antiproliferative activity against human K562 cells assessed as reduction in cell viability incubated for 72 hrs by CCK-8 assay; type: functional, cell-based; conditions: K562, 72 h
MCF7 = test: Antiproliferative activity against human MCF7 cells assessed as reduction in cell viability incubated for 72 hrs by MTT assay; type: functional, cell-based; conditions: MCF7, 72 h
CDK9/cyclin T1 [14] = molecular target: T3, CDK9/cyclin T1 (Homo sapiens, UniProt P50750); test: Inhibition of CDK9/cyclin T1 (unknown origin); type: protein-complex assay
T3 sequence (O60563 whole entry): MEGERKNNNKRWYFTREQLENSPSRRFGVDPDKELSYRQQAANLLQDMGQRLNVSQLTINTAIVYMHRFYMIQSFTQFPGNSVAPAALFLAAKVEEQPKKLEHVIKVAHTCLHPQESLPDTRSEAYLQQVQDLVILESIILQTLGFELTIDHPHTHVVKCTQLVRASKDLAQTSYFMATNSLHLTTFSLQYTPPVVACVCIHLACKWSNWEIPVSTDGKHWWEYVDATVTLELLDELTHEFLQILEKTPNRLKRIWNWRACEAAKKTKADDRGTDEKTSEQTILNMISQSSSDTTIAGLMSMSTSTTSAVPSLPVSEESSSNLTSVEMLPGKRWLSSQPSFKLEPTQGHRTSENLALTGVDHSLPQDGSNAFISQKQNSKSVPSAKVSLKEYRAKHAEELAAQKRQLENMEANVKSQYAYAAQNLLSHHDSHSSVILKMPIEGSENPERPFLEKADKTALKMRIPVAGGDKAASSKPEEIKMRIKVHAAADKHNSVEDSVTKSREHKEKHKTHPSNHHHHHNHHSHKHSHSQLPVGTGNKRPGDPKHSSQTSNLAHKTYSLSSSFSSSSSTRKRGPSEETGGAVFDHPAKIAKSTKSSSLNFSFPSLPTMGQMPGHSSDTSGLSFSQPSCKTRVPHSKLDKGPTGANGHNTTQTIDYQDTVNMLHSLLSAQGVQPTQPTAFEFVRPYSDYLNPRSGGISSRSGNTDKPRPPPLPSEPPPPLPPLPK
T3 sequence (P50750 whole entry): as the sequence (P50750 whole entry) above

MV4-11 [15] = test: Cytotoxicity against human MV4-11 cells assessed as reduction in cell viability measured for 72 hrs by cellTiter-Glo assay; type: functional, cell-based; conditions: MV4-11, 72 h
[16] = molecular target: Cyclin-dependent kinase 7 (Homo sapiens, UniProt P50613); test: Inhibition of CDK7 (unknown origin)
Cyclin-dependent kinase 7, sequence (P50613 whole entry): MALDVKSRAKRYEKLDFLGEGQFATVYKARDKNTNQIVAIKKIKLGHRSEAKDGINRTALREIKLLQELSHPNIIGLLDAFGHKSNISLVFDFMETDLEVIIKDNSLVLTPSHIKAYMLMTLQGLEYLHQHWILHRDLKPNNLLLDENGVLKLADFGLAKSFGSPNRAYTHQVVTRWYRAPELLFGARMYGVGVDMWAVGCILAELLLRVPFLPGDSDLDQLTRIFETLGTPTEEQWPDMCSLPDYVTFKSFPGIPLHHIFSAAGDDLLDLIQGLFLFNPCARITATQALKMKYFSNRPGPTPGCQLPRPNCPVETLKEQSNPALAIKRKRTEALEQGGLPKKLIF

MV4-11 [17] = test: Antiproliferative activity against human MV4-11 cells assessed as reduction in cell growth incubated for 48 hrs by MTT assay; type: functional, cell-based; conditions: MV4-11, 48 h
[18] = Downregulation of RNAP2 phosphorylation at serine 2 residue in human MV4-11 cells; type: functional, cell-based
L02 = test: Antiproliferative activity against human L02 cells assessed as reduction in cell viability incubated for 72 hrs by MTT assay; type: functional, cell-based; conditions: L02, 72 h
[19] = Cytotoxicity against human HEK293T cells assessed as reduction in cell viability incubated for 72 hrs by MTT assay; type: toxicity, cell-based, HEK-293T
CDK9/cyclin T1 [20] = molecular target: T3, CDK9/cyclin T1; test: Binding affinity to CDK9/cyclin T1 (unknown origin) assessed as inhibition constant; type: protein-complex assay
[21] = molecular target: Receptor-type tyrosine-protein kinase FLT3 (Homo sapiens, UniProt P36888, ITD); test: Binding affinity FLT3-ITD mutant (unknown origin) assessed as inhibition constant
Receptor-type tyrosine-protein kinase FLT3, sequence (P36888 whole entry, looked up, change not shown): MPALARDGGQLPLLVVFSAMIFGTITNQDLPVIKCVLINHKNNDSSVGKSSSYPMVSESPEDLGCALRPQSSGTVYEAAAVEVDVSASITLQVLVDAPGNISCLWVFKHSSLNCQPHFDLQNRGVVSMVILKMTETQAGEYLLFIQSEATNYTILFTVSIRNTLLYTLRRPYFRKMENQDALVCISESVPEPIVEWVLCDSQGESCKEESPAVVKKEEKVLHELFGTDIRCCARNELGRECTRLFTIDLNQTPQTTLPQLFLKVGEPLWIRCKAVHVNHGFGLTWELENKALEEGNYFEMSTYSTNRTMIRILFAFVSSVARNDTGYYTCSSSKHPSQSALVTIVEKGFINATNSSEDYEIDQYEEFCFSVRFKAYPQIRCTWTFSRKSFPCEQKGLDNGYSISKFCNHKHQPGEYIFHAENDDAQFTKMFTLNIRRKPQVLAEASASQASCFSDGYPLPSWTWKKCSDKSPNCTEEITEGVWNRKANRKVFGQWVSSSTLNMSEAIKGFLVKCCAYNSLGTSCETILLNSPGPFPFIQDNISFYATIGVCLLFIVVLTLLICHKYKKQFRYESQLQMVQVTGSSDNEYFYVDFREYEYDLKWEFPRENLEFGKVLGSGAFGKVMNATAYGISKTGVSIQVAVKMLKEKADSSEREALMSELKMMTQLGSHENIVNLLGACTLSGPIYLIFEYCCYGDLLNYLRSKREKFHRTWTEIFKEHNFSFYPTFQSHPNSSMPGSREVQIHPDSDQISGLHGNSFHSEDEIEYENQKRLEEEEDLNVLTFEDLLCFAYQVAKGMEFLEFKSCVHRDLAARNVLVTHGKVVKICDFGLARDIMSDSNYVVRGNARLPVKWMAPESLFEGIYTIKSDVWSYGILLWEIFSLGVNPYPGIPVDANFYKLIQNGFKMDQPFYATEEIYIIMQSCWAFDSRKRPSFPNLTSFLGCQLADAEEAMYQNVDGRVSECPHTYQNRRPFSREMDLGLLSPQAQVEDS

[22] = molecular target: Cyclin-dependent kinase 2/cyclin E1 (Homo sapiens, UniProt P24941); test: Inhibition of CDK2/cyclin E1 (unknown origin); type: protein-complex assay
CDK7/Cyclin H/MNAT1 = CDK7/Cyclin H/MNAT1 (Homo sapiens, UniProt P50613); test: Inhibition of CDK7/CycH/MAT1 (unknown origin); type: protein-complex assay
CDK7/Cyclin H/MNAT1, sequence (P51946 whole entry): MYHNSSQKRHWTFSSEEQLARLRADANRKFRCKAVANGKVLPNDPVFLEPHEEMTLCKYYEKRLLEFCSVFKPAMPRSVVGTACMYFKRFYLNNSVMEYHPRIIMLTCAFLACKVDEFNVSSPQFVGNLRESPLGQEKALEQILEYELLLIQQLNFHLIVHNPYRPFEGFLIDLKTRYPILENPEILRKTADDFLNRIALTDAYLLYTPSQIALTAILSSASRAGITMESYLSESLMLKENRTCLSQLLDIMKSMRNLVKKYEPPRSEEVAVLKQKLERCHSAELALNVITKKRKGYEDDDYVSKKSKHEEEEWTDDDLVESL
CDK7/Cyclin H/MNAT1, sequence (P50613 whole entry): as the sequence (P50613 whole entry) above
CDK7/Cyclin H/MNAT1, sequence (P51948 whole entry, further chain): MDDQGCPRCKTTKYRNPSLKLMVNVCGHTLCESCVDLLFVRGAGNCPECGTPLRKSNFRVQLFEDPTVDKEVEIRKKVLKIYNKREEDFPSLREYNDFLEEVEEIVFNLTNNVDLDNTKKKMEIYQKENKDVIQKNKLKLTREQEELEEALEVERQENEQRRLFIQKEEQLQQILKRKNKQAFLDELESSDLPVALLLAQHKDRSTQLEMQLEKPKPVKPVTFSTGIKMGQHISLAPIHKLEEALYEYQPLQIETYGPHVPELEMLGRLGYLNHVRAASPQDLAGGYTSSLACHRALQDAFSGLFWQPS

MOLM-13 [23] = test: cells; conditions: Homo sapiens, MOLM-13, 96 h

SMILES: Nc1ccccc1NC(=O)c1ccc(NC(=O)c2n[nH]cc2NC(=O)c2c(Cl)cccc2Cl)cc1
IC50 (Histone deacetylase 1): 98 nM
inhibition [1]: 98.3%

SMILES: O=C1CCC(N2C(=O)c3cccc(OCCCCCOc4ccc(CC(=O)Nc5cc(C6CCC6)[nH]n5)cc4)c3C2=O)C(=O)N1 (stereo unspecified)
Emax [2]: 56%
Emax [3]: 65%

SMILES: Cn1ncc(-c2nc(NC3CCC(N)CC3)ncc2Cl)c1CC1CC1 (stereo unspecified)
Kd [4]: 5.3 nM
Kd [5]: 4 nM

SMILES: CN(C)C(=O)c1cc2cnc(Nc3ccc(S(N)(=O)=O)cc3)nc2n1C1CCCC1
IC5 [7]: 12 nM

SMILES: Cn1ncc(-c2nc(NC3CCC(N)CC3)ncc2F)c1CC1CC1 (stereo unspecified)
Kd [4]: 9.8 nM
Kd [5]: 5.4 nM

SMILES: CCC(CC)c1cc(N[C@H]2CC[C@H](N)C2)n2nccc2n1 [ISTISOCICLIB]
GR50 (MV4-11 [9]): 0.288 µM

SMILES: N[C@H]1CC[C@H](Nc2cc(-c3cccc(NCc4cccc(F)c4)n3)c(Cl)cn2)CC1
IC50 (A498): 57 nM
IC50 at 48 h [10]: 76 nM
IC50 [6]: < 0.4 nM

SMILES: Cc1ccc([N+](=O)[O-])cc1S(=O)(=O)N(C)/N=C/c1cnc2ccc(Br)cn12
IC50 (OCI-AML-3): 220 nM

SMILES: COc1cc(F)ccc1-c1cc(Nc2cc(C[S@](C)(=N)=O)ccn2)ncc1F
IC50 (MOLM-13 [13]): 29 nM

SMILES: c1ccc(CNc2c(-c3ccncc3)nc3cnccn23)cc1
IC50 (HCT-116): 7000 nM
IC50 (K562): 7000 nM
IC50 (MCF7): 7000 nM

SMILES: CN(C)C/C=C\C(=O)Nc1ccc(C(=O)N[C@H]2CC[C@H](Nc3cc(-c4cccc(NCc5cccc(F)c5)n4)c(Cl)cn3)CC2)cc1
IC50 (A498): < 700 nM
IC50 at 48 h [10]: 3230 nM
IC50 (CDK9/cyclin T1 [14]): 196 nM

SMILES: COCCN[C@H]1CC[C@H](Nc2cc(-c3csc(NCC4(C#N)CCOCC4)n3)c(Cl)cn2)CC1
IC50 (MV4-11 [15]): 12 nM
IC50 [16]: 172 nM
IC50 [6]: 2 nM

SMILES: CC(=O)N[C@H]1CCC[C@@H](C(=O)Nc2cc(-c3cnn4c3CC(C)(C)C4)c(Cl)cn2)C1
IC50 (MV4-11 [17]): 13.7 nM
IC50 [18]: 13 nM

SMILES: COC[C@H](C)N[C@H]1CC[C@H](Nc2cc(-c3cccc(NCC4(C#N)CCOCC4)n3)c(Cl)cn2)CC1
IC50 [6]: < 0.514 nM

SMILES: COc1ccc(C(=O)Nc2cc(-c3ccnc(N4CCC(O)CC4)c3)ccn2)cc1
IC50 (L02): > 800 nM
IC50 at 72 h [19]: > 800 nM

Now from value to compound:

IC5 [6]: 6.7 nM
SMILES: CCN1C(=O)COc2c(CN3CCOCC3)cc(Nc3nccc(-c4cccnc4)n3)cc21

IC50 [8]: 2440 nM
SMILES: COc1ccccc1-c1cc(Nc2cccc(CS(N)(=O)=O)c2)ncn1

IC50 [6]: 2.23 nM
SMILES: N[C@H]1CCN(c2c3c(nc4ccc(-c5ccnc(NC(=O)C6CC6)n5)cc24)CCCC3)C1

IC50 [7]: 2.2 nM
IC50 [11]: 1.9 nM
SMILES: CC(C)c1c2cc(-c3ccnc(Nc4ccc5c(N6CCN(C)CC6)ncnc5c4)n3)ccc2nn1C

IC50 [12]: 574 nM
IC50 [6]: 16 nM
SMILES: COc1ccccc1-c1cccc(Nc2cccc(N3CCCNCC3)c2)n1

IC50 [6]: 184 nM
SMILES: COc1ccccc1-c1ccnc(Nc2ccc3c(c2)CC(=O)C(C(C)=O)C3C)n1 (stereo unspecified)

IC50 (HCT-116): 11600 nM
IC50 (K562): 11600 nM
IC50 (MCF7): 11600 nM
SMILES: COc1ccc(Nc2c(-c3ccoc3)nc3cnccn23)cc1

IC50 [8]: 1180 nM
SMILES: COc1cc(O)c2c(=O)cc(-c3ccc(N4CCN(C)CC4)cc3)oc2c1N1CCNCC1

Ki (CDK9/cyclin T1 [20]): 8 nM
Ki [21]: 13 nM
SMILES: Cc1cnc(NC2CCC(N)CC2)nc1-c1cnc2ccc(-c3ccccc3)cn12 (stereo unspecified)

IC50 [22]: > 20000 nM
IC50 (CDK7/Cyclin H/MNAT1): 93 nM
SMILES: O=c1cc(-c2cccc(O)c2)oc2c1ccc1occc12

IC50 (MOLM-13 [23]): 310 nM
SMILES: COc1cc(F)ccc1-c1ncnc(Nc2cccc(C[S@](C)(=N)=O)c2)n1 [ATUVECICLIB]
